Data set [1] deals with intra-ocular pressure (IOP) of rabbits. Nature of the data set: IB-MECA-induced ocular hypertension in rabbits. Type of data set: in vivo, New Zealand white rabbits. The settings on record: 1 mM applied after IB-MECA. As for the experimental part: IB-MECA induces acute ocular hypertension by a different and well-defined mechanism. Namely, IB-MECA is a selective agonist of the A3-adenosine receptor, and rises aqueous humour inflow and IOP by activating Cl channels of the NPE cells (18, 19). […] FIG. 8A depicts the effects of DMe (0.1-1 mM) applied prior to the IB-MECA, and a similar result was obtained for DGlyN (not shown). FIG. 8B depicts effects of digoxigenin, DGlyN and DMe (1 mM) applied after the IB-MECA.
New Zealand white rabbits (3-3.5 kg) about 1 year old, of either sex, were housed individually in separate cages in animal room conditions on a reversed, 12-hour dark/light cycle. For the experiments the animals were transferred to rabbit restrainers in a quiet and calm atmosphere (FIG. 1). […] Animal care and treatment were subject to the approval of the institutional committee for animal experiments, Weizmann Institute IACUC permission (no 04270911-2).
IOP (mm Hg) of rabbits was measured using a calibrated Pneumatonometer (Model 30, Reichert technologies, FIG. 1). A local anesthetic Oxybuprocaine HCl (0.4%, 25 μl) was applied to each cornea about a minute before IOP measurements. Two baseline IOP readings were taken before topical administration of the CG (or PBS as control) and after half an hour (Zero time). […] At zero time one drop of 4AP (40 mg/ml, 30 μl) or IB-MECA (1 μM, 30 μl) was administered to both eyes of each rabbit IOP measurements were made at different times as indicated in each experiment. In the experiments for which the IOP was elevated for several hours, 4AP was added every […] or IB-MECA every 2 hours. […] In all cases the figures depict the average effect on IOP (i.e for four or six eyes) compared to control ±SEM. […] Significance of differences from the control was calculated by the unpaired Students t-test (p values), p values <0.05 were considered significant. Corneal thickness (μm) was measured using an ultrasonic pachymeter (Sonogage pachometer, Cleveland, USA), before and during the experiment with CG and 4AP treatments. The values represent averages of three independent measurements for each eye.

Data set [2] concerns the target T1, Na,K-ATPase α1β1 isoform complex (Homo sapiens, UniProt P05023). Nature of the data set: biochemical. The conditions noted are these: Ki ± S.E. α1, Table 2; α1β1. As for the experimental part: (§1) Methods for transformation, culture of P. pastoris clones, protein expression of Na,K-ATPase human isoforms (α1β1, α2β1, α3β1), membrane preparation, solubilization of membranes in DDM, and purification on BD-Talon beads have been described in detail (6-9, 11, 25). In initial experiments the three purified isoform complexes (0.3-0.5 mg/ml) were eluted from the BD-Talon beads in a solution containing Imidazole 170 mM, NaCl 100 mM; Tricine.HCl 20 mM pH 7.4; C12E8, 0.1 mg/ml; SOPS 0.07 mg/ml cholesterol 0.01 mg/ml, glycerol 25%. In later experiments the isoforms complexes were reconstituted with purified FXYD1 on the BD-Talon beads together as described in detail in (10, 11) prior to elution of α1β1FXYD1, α2β1FXYD1 and α3β1FXYD1 complexes. The proteins were stored at −80° C. Protein concentration was determined with BCA (B9643 Sigma).
(§2) Inhibition of Na,K-ATPase activity of the detergent-soluble α1β1, α2β1, and α3β1 complexes by CG's was determined as described (6) using either the αβ or αβFXYD1 complexes. […] The K0.5K was estimated by varying K concentration in a medium containing a fixed total K+choline chloride of 60 mM, and constant NaCl of 140 mM. Curves were fitted to the Hill function v=Vmax*[S]^n/([S]^n+K^n), where S is the K concentration, n is the Hill coefficient and K^n is K0.5K. For comparison of different curves the ratio v/Vmax for each curve was calculated and replotted. In experiments to assess inhibition of Na,K-ATPase activity by cardiac glycosides of the present invention, the percent inhibition VCG/V0 was calculated and Ki values were obtained by fitting the data to the function VCG/V0=Ki/([CG]+Ki)+ c. Inhibition was estimated in 3-8 separate experiments and average Ki values ±SEM were calculated. Significance of differences between Kiα1 and Kiα2 was calculated by the unpaired Student's t-test (p values). […] P values <0.05 were considered significant.

The target of data set [3] is T1, Na,K-ATPase α1β1 isoform complex. Nature of the data set: biochemical. The settings on record: Ki, nM ± SEM α1β1, Table 6. Set-up: made in house; host or cells: Pichia pastoris SMD1165. As for the experimental part: as §1, §2
For data set [4], the target named is Na,K-ATPase α2β1 isoform complex (Homo sapiens, UniProt P50993). Nature of the data set: biochemical. The conditions noted are these: Ki, nM ± SEM α2β1, Table 6. The data set is classed as biochemical. Details: made in house; host or cells: Pichia pastoris SMD1165. As for the experimental part:
as §1, §2

In data set [5] the test system is cornea of rabbits. Nature of the data set: Pachymetry: corneal thickness and local toxicity after topical cardiac glycosides. The data set is classed as in vivo, New Zealand white rabbits. The settings on record: for Corneal thickness: 0.5 mM; for Corneal thickness (in words): over 4 hours, Digoxin 1 mM, DGlyN 0.5 mM, DMe 0.5 mM, ouabain 1 mM; for Corneal thickness (in words) / Redness or local irritation in conjunctiva or cornea: after 4AP; for Redness or local irritation in conjunctiva or cornea: topical. As for the experimental part:
Thus, in this study, no change in corneal thickness was detected (Table 3), indicative of lack of local toxic effects. […] Similar results were obtained with CG's applied after IB-MECA.
IOP (mm Hg) of rabbits was measured using a calibrated Pneumatonometer (Model 30, Reichert technologies, FIG. 1). A local anesthetic Oxybuprocaine HCl (0.4%, 25 μl) was applied to each cornea about a minute before IOP measurements. Two baseline IOP readings were taken before topical administration of the CG (or PBS as control) and after half an hour (Zero time). […] At zero time one drop of 4AP (40 mg/ml, 30 μl) or IB-MECA (1 μM, 30 μl) was administered to both eyes of each rabbit IOP measurements were made at different times as indicated in each experiment. In the experiments for which the IOP was elevated for several hours, 4AP was added every 1.5 hours or IB-MECA every 2 hours. […] Each experiment was repeated two or three times with similar results. In all cases the figures depict the average effect on IOP (i.e for four or six eyes) compared to control ±SEM. Where error bars are not seen in the figures, the errors are smaller than the symbols used. Significance of differences from the control was calculated by the unpaired Students t-test (p values), p values <0.05 were considered significant. Corneal thickness (μm) was measured using an ultrasonic pachymeter (Sonogage pachometer, Cleveland, USA), before and during the experiment with CG and 4AP treatments. The values represent averages of three independent measurements for each eye.

One may read the Ki as the equilibrium dissociation constant of an inhibitor or competing ligand from its target. Turning to `CC1CN(C)CCC(OC2C(O)CC(OC3C(O)CC(OC4CCC5(C)C(CCC6C5CC(O)C5(C)C(C7=CC(=O)OC7)CCC65O)C4)OC3C)OC2C)O1` (stereo not drawn) [DMe], the “Duration of the effect compared with digoxigenin” value in data set [1] is recorded as “significantly greater”. Further, in data set [1], the “Effect on IB-MECA-induced ocular hypertension” value is “almost the same as seen with 4AP”. Further, the inhibition constant (Ki) in data set [2] was 101 ± 4.4 nM; in data set [3] it was 103 ± 5.6 nM; in data set [4], 15.3 ± 1.2 nM. In addition, the Corneal thickness was determined as 465 microns in data set [5] (left eye, 0 h); 440 microns in data set [5] (left eye, 2 h); 453 microns in data set [5] (left eye, 4 h); 507 microns in data set [5] (right eye, 0 h); 476 microns in data set [5] (right eye, 2 h); 498 microns in data set [5] (right eye, 4 h). In addition, the “Corneal thickness (in words)” value in data set [5] is “not significantly affected”. Further, in data set [5], the “Redness or local irritation in conjunctiva or cornea” value is listed as “neither redness nor local irritation were observed”.

Regarding `CC1CN(CC(N)=O)CCC(OC2C(O)CC(OC3C(O)CC(OC4CCC5(C)C(CCC6C5CC(O)C5(C)C(C7=CC(=O)OC7)CCC65O)C4)OC3C)OC2C)O1` (stereo not drawn) [DGlyN], the “Duration of the effect compared with digoxigenin” value in data set [1] is on record as “significantly greater”. The “Effect on IB-MECA-induced ocular hypertension” value in data set [1] is “almost the same as seen with 4AP”. The affinity in data set [2] corresponds to a Ki of 152 ± 5.5 nM. Further, the Corneal thickness turned out to be 498 microns in data set [5] (left eye, 0 h); 462 microns in data set [5] (left eye, 2 h); 455 microns in data set [5] (left eye, 4 h); 496 microns in data set [5] (right eye, 0 h); 476 microns in data set [5] (right eye, 2 h); 454 microns in data set [5] (right eye, 4 h). Besides, the “Corneal thickness (in words)” value in data set [5] is given as “not significantly affected”. Besides, in data set [5], the “Redness or local irritation in conjunctiva or cornea” value was “neither redness nor local irritation were observed”.

The record behind these values is patent US9938316B2, “Selective inhibitors of α2 isoform of Na,K-ATPase and use thereof for reduction of intra-ocular pressure and as cardiotonic agents” (priority 2013, dated 2018).
